Patent publication US20110105496A1, “Methods For The Treatment Of Myosin Heavy Chain-Mediated Conditions Using 4,7-Dihydrothieno[2,3-B]Pyridine Compounds” (priority 2005, published 2011)
Read-outs that look alike come from different tables or passages of the source.

System: alpha-MyHC
Experiment: alpha-MyHC cytoblot process in neonatal rat ventricular myocytes (NRVM)
Format: cell-based
Description: In vitro activity of each compound is measured using the alpha-MyHC cytoblot process. Briefly, neonatal rat ventricular myocytes (NRVM) at 120,000 cells/ml in HyQ DME/High modified culture media supplemented with 10% charcoal/dextran treated FBS, 0.1% Nutridoma-SP, 1:100 MEM non-essential amino acids, 1:50 MEM amino acids solution w/o L-Gln, 1 mM sodium pyruvate and 1:100 P/S/G, are plated on gelatin coated sterile 384-well plates (Costar 3712) at 6,000 cells per well. Cells are incubated overnight at 37° C. in 5% CO2 100% humidity. Following overnight growth the media is changed to HyQ DME/High modified culture media supplemented with 0.3% Nutridoma-SP, 1:100 MEM non-essential amino acids, 1:50 MEM amino acids solution w/o L-Gln, 1 mM sodium pyruvate and 1:100 P/S/G. Cells are then dosed with serial dilutions of each compound in DMSO. Each concentration in the dose range is dosed in quadruplicate. Dosing is done in such a way so that the final DMSO concentration was 0.44%. Compound dilutions are 3-fold with the final top concentration of 10 uM. […] Following dosing, the cells are incubated for 72 hours at 37° C. in 5% CO2 100% humidity and then processed with the cytoblot method. Briefly, cell media is aspirated and cell monolayers washed with PBS and fixed with 100% methanol for 30 minutes. Fixed cells are then blocked with PBS, 0.05% Tween-20, 1% BSA, for 1 hour. Following blocking, cells are incubated with primary alpha-MyHC-specific antibody antibody (1:30 dilution of BA-G5 hybridoma conditioned media, ATCC HB276) for 1 hour. Following incubation with the primary antibody, cells are washed with PBS, 0.05% Tween-20, 1% BSA and incubated with secondary antibody (1:1000 dilution, goat-anti-mouse HRP, Southern Biotech, 1031-05) for 1 hour. Following incubation with the secondary antibody, wells are washed and incubated in SuperSignal, West Dura HRP-luminescence substrate for 30 seconds under shaking at room temperature. Luminescence is measured using a Packard Fusion plate reader. […] RLU values are converted into per cent fraction of low control and dose responses are fitted to a sigmoidal 4-parameter equation (XLFit, IDBS) where the EC50 and Max Plateau values were extracted. […] Max Plateau is the […] maximum value determined by the dose response fit.

[1] = Table 1, NRVM, 72 hours, maximum of dose response fit, low control = vehicle only
[2] = Table 1, NRVM, 72 hours, alpha-MyHC cytoblot, mean ± spread
[3] = Table 2 (esters), NRVM, 72 hours, alpha-MyHC cytoblot
[4] = Table 2 (esters), NRVM, 72 hours, maximum of dose response fit

Row | Structure (SMILES) | EC50 [2] | Max Plateau [1] | Max Plateau [4] | other results
1 | CCC(=O)C1=C(CC)Nc2sc(C(=O)c3ccc(Cl)c(Cl)c3)c(N)c2C1c1cccc2ccccc12 (centres unmarked) [Compound 85] |  | 105.90 ± 6.18 per cent fraction of low control |  | 
2 | CCC(=O)C1=C(CC)Nc2sc(C(=O)c3ccc(Cl)c(Cl)c3)c(N)c2C1c1cccc(F)c1 (centres unmarked) [Compound 84] | 5.4 nM | 242.72 ± 19.34 per cent fraction of low control |  | 
3 | CCC1=C(C(=O)OC(C)CC)C(c2ccccc2F)c2c(sc(C(=O)c3cccc(C#N)c3)c2N)N1 (single isomer, unassigned) [Compound 165] |  |  | 250.83 per cent fraction of low control | EC50 [3]: 12 nM
4 | CCC1=C(C(=O)OC(C)COC)C(c2ccccc2F)c2c(sc(C(=O)c3cccc(C#N)c3)c2N)N1 (centres unmarked) [Compound 193] |  |  | 230.28 ± 6.46 per cent fraction of low control | EC50 [3]: 77.6 nM
5 | N[C@@H](Cc1cc(I)c(Oc2ccc(O)c(I)c2)c(I)c1)C(=O)O [Compound T3, 3,5,3′-triiodo-L-thyronine, reference compound] |  |  |  | Relative Light Unit (RLU) values (high control, 3 nM T3, low control (vehicle only) 2,000-3,000): 8,000-10,000 RLU
6 | COC(=O)C1=C(C(C)C)Nc2sc(C(=O)c3cccc(C#N)c3)c(N)c2C1c1ccccc1F (racemic) [Compound 177] |  |  | 162.75 per cent fraction of low control | EC50 [3]: 796 nM
7 | CCC1=C(C(=O)OC2CCCCC2)C(c2ccccc2)c2c(sc(C(=O)c3ccc(Cl)c(Cl)c3)c2N)N1 (centres unmarked) [Compound 160] |  |  | 186.95 per cent fraction of low control | EC50 [3]: 75.4 nM
8 | CCC1=C(C(=O)OCCOC)C(c2ccnc(F)c2)c2c(sc(C(=O)c3cccc(Cl)c3)c2N)N1 (single isomer, unassigned) [Compound 191] |  |  | 263.67 ± 1.13 per cent fraction of low control | 
9 | CC(=O)C1=C(C)Nc2sc(C(=O)c3ccccc3)c(N)c2C1c1ccncc1 (centres unmarked) [Compound 19] | 3390 nM | 260.00 ± 36.06 per cent fraction of low control |  | 
10 | CC(=O)C1=C(C)Nc2sc(C(=O)c3ccccc3Cl)c(N)c2C1c1ccccc1 (centres unmarked) [Compound 57] | 1250 nM | 246.00 ± 16.33 per cent fraction of low control |  | 
11 | CCC(=O)C1=C(CC)Nc2sc(C(=O)c3ccc(Cl)c(Cl)c3)c(N)c2C1c1ccccc1C (centres unmarked) [Compound 56] | 42.9 nM | 293.74 ± 50.82 per cent fraction of low control |  | 
12 | CCC(=O)C1=C(CC)Nc2sc(C(=O)c3ccc(F)cc3)c(N)c2C1c1ccccc1 (centres unmarked) [Compound 79] | 40.8 nM | 241.90 ± 15.79 per cent fraction of low control |  | 
13 | CCOC(=O)C1=C(CC)Nc2sc(C(=O)c3ccc(Cl)c(Cl)c3)c(N)c2C1c1ccccc1F (centres unmarked) [Compound 142] |  |  | 194.32 per cent fraction of low control | EC50 [3]: 6.78 nM
14 | CC(=O)C1=C(C)Nc2sc(C(=O)c3ccc(Cl)c(Cl)c3)c(N)c2C1c1ccccc1 (centres unmarked) [Compound 2] | 177 nM | 207.74 ± 23.00 per cent fraction of low control |  | 
15 | CC(=O)C1=C(C)Nc2sc(C(=O)c3ccccc3)c(N)c2C1c1cccnc1 (centres unmarked) [Compound 20] |  | 127.35 ± 23.71 per cent fraction of low control |  | 
16 | CCC(=O)C1=C(CC)Nc2sc(C(=O)c3ccccc3F)c(N)c2C1c1ccccc1 (centres unmarked) [Compound 67] | 12.1 nM | 256.12 ± 53.66 per cent fraction of low control |  | 
17 | CC(=O)C1=C(C)Nc2sc(C(=O)c3ccc(Cl)c(Cl)c3)c(N)c2C1c1ccc(C(F)(F)F)cc1 (centres unmarked) [Compound 48] | 5110 nM | 190.81 ± 37.09 per cent fraction of low control |  | 

Row | Structure (SMILES) | EC50 [2] | Max Plateau [1] | Max Plateau [4] | other results
18 | CC(=O)C1=C(C)Nc2sc(C(=O)c3ccc(Cl)c(Cl)c3)c(N)c2C1c1ccc(Cl)c(Cl)c1 (centres unmarked) [Compound 47] | 116 nM | 173.47 ± 25.64 per cent fraction of low control |  | 
19 | COC(=O)C1=C(C(C)(C)C)Nc2sc(C(=O)c3ccc(Cl)c(Cl)c3)c(N)c2C1c1ccccc1 (centres unmarked) [Compound 131] |  |  | 158.97 per cent fraction of low control | EC50 [3]: 2900 nM
20 | CCCC(=O)C1=C(CCC)Nc2sc(C(=O)c3ccc(Cl)c(Cl)c3)c(N)c2C1c1ccccc1 (centres unmarked) [Compound 86] | 627 nM | 131.26 ± 2.34 per cent fraction of low control |  | 
21 | CCC(=O)C1=C(CC)Nc2sc(C(=O)c3ccc(F)c(F)c3)c(N)c2C1c1ccccc1F (centres unmarked) [Compound 108, 1-[3-amino-2-(3,4 difluoro-benzoyl)-6-ethyl-4-(2 fluoro-phenyl)-4,7 dihydro-thieno[2,3-b]pyridine-5-yl]propan-1-one] |  | 266.30 ± 58.14 per cent fraction of low control |  | 
22 | CCC(=O)C1=C(CC)Nc2sc(C(=O)c3ccc(Cl)c(Cl)c3)c(N)c2C1c1ccccc1F (racemic) [Compound 39, 1-[3-amino-2-(3,4-dichloro-benzoyl)-6-ethyl-4-(2-fluoro-phenyl)-4,7-dihydro-thieno[2,3b]pyridin-5-yl]-propan-1-one] |  |  |  | EC50 (Rattus norvegicus, Ventricular myocyte, Table 1, NRVM, 72 hours, alpha-MyHC cytoblot, mean ± spread): 17.1 nM; Emax (Rattus norvegicus, Ventricular myocyte, Table 1, NRVM, 72 hours, maximum of dose response fit, low control = vehicle only, read-out: Max Plateau): 273 ± 37.3%
23 | CC(=O)C1=C(C)Nc2sc(C(=O)c3ccc(Cl)c(Cl)c3)c(N)c2C1(C)c1cccc(F)c1 (centres unmarked) [Compound 207, 1-[3-amino-2-(3,4 dichloro-benzoyl)-4-(3 fluoro-phenyl)-4,6-dimethyl-4,7 dihydro-thieno[2,3-b]pyridin-5-yl]-ethanone] |  |  |  | Max Plateau (Table 4, NRVM, 72 hours, maximum of dose response fit): 148.73 ± 27.95 per cent fraction of low control
24 | CCC(=O)C1=C(CC)Nc2sc(C(=O)c3ccc(Cl)cc3)c(N)c2C1c1ccccc1 (centres unmarked) [Compound 80] | 103 nM | 226.13 ± 5.25 per cent fraction of low control |  | 
25 | CCC1=C(C(=O)OCCOC)C(c2ccccc2F)c2c(sc(C(=O)c3cccc(Cl)c3)c2N)N1 (single isomer, unassigned) [Compound 179] |  |  | 237.11 ± 19.59 per cent fraction of low control | 
26 | CCOC(=O)C1=C(CC)Nc2sc(C(=O)c3ccc(F)c(CC(=O)OC)c3)c(N)c2C1c1ccccc1 (racemic) [Compound 194] |  |  | 188.67 per cent fraction of low control | EC50 [3]: 247 nM
27 | COCC1=C(C(=O)OC)C(c2ccccc2)c2c(sc(C(=O)c3ccc(Cl)c(Cl)c3)c2N)N1 (centres unmarked) [Compound 120] |  |  | 140.79 per cent fraction of low control | EC50 [3]: 157 nM
28 | CCC1=C(C(=O)OC(C)COC)C(c2ccccc2F)c2c(sc(C(=O)c3cccc(Cl)c3)c2N)N1 (centres unmarked) [Compound 181] |  |  | 240.80 ± 29.53 per cent fraction of low control | EC50 [3]: 21 nM
29 | CC(=O)C1=C(C)Nc2sc(C(=O)c3ccc(Cl)c(Cl)c3)c(N)c2C1c1ccccc1O (centres unmarked) [Compound 34] | 1250 nM | 184.69 ± 15.76 per cent fraction of low control |  | 
30 | CCC(=O)C1=C(CC)Nc2sc(C(=O)c3ccc(Cl)c(Cl)c3)c(N)c2C1c1cccc(Cl)c1 (centres unmarked) [Compound 54] | 0.59 nM | 267.44 ± 32.29 per cent fraction of low control |  | 
31 | CC1=C(C(=O)OCCNC(=O)OC(C)(C)C)C(c2ccccc2F)c2c(sc(C(=O)c3ccc(Cl)c(Cl)c3)c2N)N1 (centres unmarked) [compound 223] |  |  |  | EC50: 10.8 nM; Max Plateau: 213.11 ± 12.55
32 | CC(=O)C1=C(C)N(C)c2sc(C(=O)c3ccccc3)c(N)c2C1c1ccccc1 (centres unmarked) [Compound 208, 1-(3-amino-2-benzoyl-6,7 dimethyl-4-phenyl-4,7 dihydro-thieno[2,3-b]pyridin-5-yl)-ethanone] |  |  |  | Max Plateau (Table 5 (R^4 substituted), NRVM, 72 hours, maximum of dose response fit): 173.33 per cent fraction of low control
33 | C=CCOC(=O)C1=C(C)Nc2sc(C(=O)c3ccc(Cl)c(Cl)c3)c(N)c2C1c1ccccc1 (centres unmarked) [Compound 127] |  |  | 195.71 ± 29.42 per cent fraction of low control | EC50 [3]: 54 nM

Further lines, with some results ahead:

Row | EC50 [2] | Structure (SMILES) | Max Plateau [1] | Max Plateau [4] | other results
34 | 5.23 nM | CCC(=O)C1=C(CC)Nc2sc(C(=O)c3ccc(Cl)c(Cl)c3)c(N)c2C1c1ccnc(Cl)c1 (centres unmarked) [Compound 99] | 264.37 ± 33.84 per cent fraction of low control |  | 
35 | 4.38 nM | CCC(=O)C1=C(CC)Nc2sc(C(=O)c3ccccc3)c(N)c2C1c1cc(F)cc(F)c1 (centres unmarked) [Compound 105] | 273.18 ± 37.33 per cent fraction of low control |  | 
36 | 4.99 nM | CCC(=O)C1=C(CC)Nc2sc(C(=O)c3ccc(Cl)c(Cl)c3)c(N)c2C1c1ccnc(F)c1 (centres unmarked) [Compound 98] | 255.02 ± 32.01 per cent fraction of low control |  | 
37 | 1.67 nM | CCC(=O)C1=C(CC)Nc2sc(C(=O)c3c(Cl)cccc3Cl)c(N)c2C1c1ccccc1F (centres unmarked) [Compound 107] | 273.85 ± 29.06 per cent fraction of low control |  | 
38 | 8.93 nM | CCC(=O)C1=C(CC)Nc2sc(C(=O)c3ccccc3Br)c(N)c2C1c1ccccc1 (centres unmarked) [Compound 106] | 244.21 ± 29.53 per cent fraction of low control |  | 
